Patent US20070093894A1, “Incorporation of antimicrobial combinations onto devices to reduce infection” (Baylor College of Medicine, priority 2005, published 2007)

Assays:
Type in all cases: cell-based
[1] = test system: Enterococcus faecalis (gram positive); assay: Zone of inhibition on agar, antibiotic-coated composite hernia patch segments; details: hernia patch (polypropylene mesh/PTFE) segment 10x10x2 mm, coating solution 100 mg/ml of each antibiotic, long axis perpendicular to agar; for zone of inhibition at 100000 µg/mL: Enterococcus faecalis
Description: (§1) The device used in this example is a composite hernia patch with polypropylene mesh on one side and polytetrafluoroethylene (PTFE) on the other side. Antibiotics were incorporated onto devices by using a patented method (U.S. Pat. No. 6,589,591) that utilized coating solutions that contained 100 mg/ml of minocycline; 100 mg/ml tobramycin; 100 mg/ml gentamicin; 100 mg/ml minocycline and 100 mg/ml tobramycin (minocycline dissolved first); or 100 mg/ml minocycline and 100 mg/ml gentamicin (minocycline dissolved first). The tested square device segments were 10 mm (long)×10 mm (wide)×2 mm (thick). The device segments were placed onto agar with their long axis perpendicular to the agar (i.e. only 2 mm of the segment was in contact with the agar). All zone of inhibition are expressed in mm, and table 1 summarizes the results of the zones of inhibition.

[2] = test system: Staphyulococcus aureus (gram positive); assay: as above; details: hernia patch (polypropylene mesh/PTFE) segment 10x10x2 mm, coating solution 100 mg/ml of each antibiotic, long axis perpendicular to agar
Description: as §1

[3] = test system: Escherichia coli (gram negative); assay: as above; details: hernia patch (polypropylene mesh/PTFE) segment 10x10x2 mm, coating solution 100 mg/ml of each antibiotic, long axis perpendicular to agar; for zone of inhibition at 100000 µg/mL: Escherichia coli
Description: as §1

[4] = test system: Staphylococcus epidermidis; assay: Zone of inhibition on agar, antibiotic-coated polyurethane central venous catheter segments; details: 7-french polyurethane central venous catheter segment 10x2 mm, coating solution 100 mg/ml of each antibiotic, long axis parallel to agar; for zone of inhibition at 100000 µg/mL: Staphylococcus epidermidis
Description: The device used in this example is a 7-french, polyurethane central venous catheter. Antibiotics were incorporated onto devices by using a patented method (U.S. Pat. No. 6,589,591) that utilized coating solutions that contained 100 mg/ml of minocycline; 100 mg/ml tobramycin; 100 mg/ml gentamicin; 100 mg/ml minocycline and 100 mg/ml tobramycin (minocycline dissolved first); or 100 mg/ml minocycline and 100 mg/ml gentamicin (minocycline dissolved first). The tested catheter segments were 10 mm (long)×2 mm (wide). The cather segments were placed onto agar with their long axis parerrel to the agar. All zone of inhibition are expressed in mm, and table 2 summarizes the results of the zones of inhibition.

Molecule | zone of inhibition at 100000 µg/mL [1] [mm] | zone of inhibition at 100000 µg/mL [2] [mm] | zone of inhibition at 100000 µg/mL [3] [mm] | zone of inhibition at 100000 µg/mL [4] [mm] | zone of inhibition, Enterococcus faecalis (gram positive) [1] [mm] | zone of inhibition, Staphyulococcus aureus (gram positive) [2] [mm] | zone of inhibition, Escherichia coli (gram negative) [3] [mm] | zone of inhibition, Staphylococcus epidermidis [4] [mm]
CN(C)c1ccc(O)c2c1C[C@H]1C[C@H]3[C@H](N(C)C)C(O)=C(C(N)=O)C(=O)[C@@]3(O)C(O)=C1C2=O [Minocycline, minocycline] | 3 | 11 | 3 | 30 | – | – | – | –
NC[C@H]1O[C@H](O[C@H]2[C@H](O)[C@@H](O[C@H]3O[C@H](CO)[C@@H](O)[C@H](N)[C@H]3O)[C@H](N)C[C@@H]2N)[C@H](N)C[C@@H]1O [Tobramycin, tobramycin] | 9 | 12 | 18 | 14 | – | – | – | –
gentamicin | – | – | – | – | 0 | 14 | 11 | 6
